The results in this text go back to patent US5183828A, “Polyhydroxybenzoic acid derivatives” (priority 1990, dated 1993).

One assay concerns the target T1, Δ^5-lipoxygenase (Rattus norvegicus, UniProt P12527).
T1 construct: supernatant fraction of lysed rat basophilic leukemia (RBL-1) cells; endogenous in cells; host or cells: RBL-1 cells, 49,000 g supernatant of homogenate
T1 sequence (P12527 1-673): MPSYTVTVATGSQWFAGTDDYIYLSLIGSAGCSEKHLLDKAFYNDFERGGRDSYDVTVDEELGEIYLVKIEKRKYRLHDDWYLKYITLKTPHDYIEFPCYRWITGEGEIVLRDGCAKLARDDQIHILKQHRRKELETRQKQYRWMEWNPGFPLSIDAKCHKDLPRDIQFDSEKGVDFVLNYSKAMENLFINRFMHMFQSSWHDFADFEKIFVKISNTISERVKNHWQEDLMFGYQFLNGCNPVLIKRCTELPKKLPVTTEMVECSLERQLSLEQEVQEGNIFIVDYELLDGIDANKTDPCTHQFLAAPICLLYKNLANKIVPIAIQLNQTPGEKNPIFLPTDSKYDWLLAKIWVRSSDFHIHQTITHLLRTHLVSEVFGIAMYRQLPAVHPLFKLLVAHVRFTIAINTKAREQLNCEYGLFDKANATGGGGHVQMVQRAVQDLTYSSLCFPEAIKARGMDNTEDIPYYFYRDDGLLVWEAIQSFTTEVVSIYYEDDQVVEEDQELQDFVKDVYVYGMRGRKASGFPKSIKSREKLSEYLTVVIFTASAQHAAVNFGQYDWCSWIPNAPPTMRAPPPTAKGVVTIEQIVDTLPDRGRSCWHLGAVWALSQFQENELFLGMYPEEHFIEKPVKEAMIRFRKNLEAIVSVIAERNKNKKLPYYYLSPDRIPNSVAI
Nature of the assay: ability to inhibit Δ^5-lipoxygenase. The settings on record: RBL-1 cell supernatant. Format: biochemical. The method, then:
This enzyme is believed to initiate the synthesis of slow reacting substance of […]), an important mediator in the pathogenesis of asthma. Thus, a drug capable of inhibiting this enzyme would also help to prevent asthmatic attacks. In this determination, Δ^5 -lipoxygenase was derived from the supernatant fraction of lysed rat basophilic leukemia (RBL-1) cells. […] The Δ^5 -lipoxygenase was derived from RBL-1 cells which were lysed by homogenization in ice-cold buffer (50 mM Tris-HCl buffer, pH 7.2, containing 1 mM EDTA and 14 uM indomethacin). The homogenate was centrifuged at 4 ° C. at 49,000 g for 20 min and the resulting supernatant fraction was used as the source of Δ^5 -lipoxygenase. The enzyme was assayed at 37° using 6.7 uM (0.39 uCi/ml) [1-14C]arachidonic acid as the substrate in 50 mM Tris-HCl buffer, pH 7.2, containing 1 mM gluthatione, 3 mM CaCl2, 14 uM indomethacin, and 0.25 to 0.50 mM EDTA. […] The effect of compounds on Δ^5 -lipoxygenase activity was determined by preincubating the enzyme for 10 min at 30° in the presence or absence of various concentrations of the drug prior to addition of substrate.

The test system of another assay is SRS-A biosynthesis. As to the kind of experiment: effect of drug on SRS-A biosynthesis. Format: in vivo. The settings on record: 10 mg/kg, i.v.; ovalbumin-sensitized guinea-pigs. The method, then:
Compounds according to this invention were also able to affect SRS-A biosynthesis, also in vivo. In this determination, male Hartley guinea-pigs (200-300 g) were sensitized with a single intraperitoneal injection of ovalbumin (10 mg) in 1 ml of 0.9% w/v NaCl solution (saline). The animals were used for study on days 28-45, following the ovalbumin injection. Guinea-pigs this sensitized were anaesthetized with an intraperitoneal injection of urethane (2 g/kg), and the carotid artery and jugular vein cannulated for measurement of arterial blood pressure and to facilitate intravenous drug administration. Animals were ventilated with a Harvard small animal respirator set at a stroke volume of 2.5 cc and a rate of 40 breaths per min. Ventilatory pressure (cmH2 O) was measured with a Statham pressure transducer from a side arm off the tracheal cannula. […]
Plasma SRS-A was determined as follows: Arterial blood was drawn from the carotid artery of the guinea-pigs into sodium citrate (0.38%) containing indomethacin (10^-4 M). […]
SRS-A was bioassayed on the guinea-pig ileum incubated in Tyrode solution containing 10^-6 M atropine sulphate and 10^-6 M pyrilamine maleate and aerated with 95% O2 and 5% CO2. Changes in tension were measured isotonically with an Adaps rotary motion transducer and recorded on a Linear recorder. […]

The next assay concerns B16 Melanoma. As to the kind of experiment: activity vs B16 melanoma (T/C % survival), Table 4. The settings on record: nine days, >120 significant. In kind it is in vivo, mice. As to the method: The drugs were also used to treat melanotic melanoma B16. The protocol for testing against this tumor is as follows:
0.5 ml. of a tumor homogenate prepared by homogenizing 1 g. of tumor with 10 ml. of cold balanced solution is implanted ip in groups of 10 B6 C3 F1 mice. The drug is administered daily for a total of nine days starting one day after tumor inoculation. The results are expressed as mean survival time of treated group versus control group (T/C) as a percent.

Assay [1] can be described thus: free radical scavenging ability (destruction of diphenylpicrylhydrazyl), Table 7. The conditions noted are these: 100 μM diphenylpicrylhydrazyl in acetone; test compound 25 μM, 2.5 μM (footnote). An excerpt: It is believed that the antineoplastic activity of the compounds of this invention is due in parts to their ability to scavenge free-radicals. Additionally, the compounds of this invention are cancer protective agents and this utility also may be a manifestation of their free-radical scavenging capability. Free-radical scavenging agents may also be useful in detoxifying mammals in whom an excess of free radicals is a cause and/or result of the toxicity. Other possible uses of free radical scavengers are to inhibit protaglandin transformation, leucotriene interconversion and lipogenesis, to act as inflammatory modulators and as food additive or preservatives to prevent lipid oxidation. The free radical scavenging ability of the compounds of the invention was determined by measuring the destruction of the stable free radical, diphenylpicrylhydrazyl, in the presence of the test compound in a manner similar to that reported by […] and Herzmann, Naturwiss, 47, 133-134 (1960). […] The test compound was added at a final concentration of 25 μM and the rate of reduction of absorpotion at […] was observed. Table 7 below gives the free radical scavenging abilities of the compounds of this invention expresses as the initial rate of decrease in optical density units/min.

Structures are written as SMILES. Values joined by “and” are separate entries in the source; they are usually repeats but may differ in a detail not shown here. Equal entries are not always repeated. Structures can show the parent of a compound that is named as a salt.

As for `NC(=NO)c1ccc(O)c(O)c1` [3,4-dihydroxybenzamidoxime.HCl, 3,4-dihydroxybenzamidoximehydrochloride], testing at 1 µM against Δ^5-lipoxygenase (1 uM) gave an inhibition of 25%. The molecule also registered an inhibition at 10 µM on Δ^5-lipoxygenase of 94%. Also, the “% Inhibition of SRS-A Biosynthesis” value in the assay on SRS-A biosynthesis is reported as 25%. The “T/C % (mean survival time)” value is on record as 119% in the assay on B16 Melanoma (25 mg/kg daily); 127% with B16 Melanoma (50 mg/kg daily); 129% with B16 Melanoma (100 mg/kg daily); 134% with B16 Melanoma (200 mg/kg daily); 117% with B16 Melanoma (400 mg/kg daily); “toxic” in the assay on B16 Melanoma (800 mg/kg daily). The “initial rate of decrease in optical density (518 nm)” value in assay [1] turned out to be 0.718 units/min.

Take `CCOC(=N)c1cc(O)c(O)c(O)c1` [ethyl 3,4,5-trihydroxybenzamidate-HCl, Ethyl 3,4,5-trihydroxybenzamidate hydrochloride]: testing at 10 µM at Δ^5-lipoxygenase gave an inhibition of 86%. Besides, the “% Inhibition of SRS-A Biosynthesis” value with SRS-A biosynthesis came out at 29%. In addition, the “T/C % (mean survival time)” value is 105% with B16 Melanoma (25 mg/kg daily); 109% and 104% with B16 Melanoma (50 mg/kg daily, listed as ethyl gallamidate.HCl, hydrochloride); 121% and 109% and 107% with B16 Melanoma (100 mg/kg daily, listed as ethyl gallamidate.HCl, hydrochloride); 121% and 125% and 122% in the assay on B16 Melanoma (200 mg/kg daily, listed as ethyl gallamidate.HCl, hydrochloride); 124% and 156% and 137% in the assay on B16 Melanoma (400 mg/kg daily, listed as ethyl gallamidate.HCl, hydrochloride). Moreover, in assay [1], the “initial rate of decrease in optical density (518 nm)” value came to 3.730 units/min.

For orientation: inhibition means the relative decrease from the control value, in per cent.
